Earlier results as cited in patent US7807830B2, “Manufacture of pure hydralazine salts” (Navinta LLC, priority 2005, dated 2010).
Structures can show the parent of a compound that is named as a salt. Where two headings read alike, the source gives them in different places.

Question: Which onset of action (given intravenously) does the source give for `NNc1nncc2ccccc12` [Hydralazine hydrochloride, 1-hydrazinophthalazine] here?
Answer: Its onset of action is 10 to 20 min.

Question: And the duration of action (in vivo)?
Answer: Its duration of action is 3 to 4 h.

Question: What about the “maximum hypotensive effect in” value (in vivo) of the same compound?
Answer: The value was 10 to 80 min.

Question: And the onset of action (oral administration)?
Answer: Its onset of action is 10 to 30 min.
